Experimental data: PMC11520566, “Discovery of pyrazole-based analogs as CDK2 inhibitors with apoptotic-inducing activity: design, synthesis and molecular dynamics study” (RSC Advances, 2024)

Experiments:
[1] = test system: HCT-116 cells; experiment: Flow cytometry cell cycle analysis; type: cell-based; details: 1.806 μM
Description: Cell cycle analysis was conducted to explore the mechanism and the mode of action of the newly synthesized compounds as anticancer agents, typically inducing cytotoxicity by activating signaling pathways that trigger apoptosis.[35] […] Compound 4 was further subjected to cell cycle analysis following the established protocols.[35]
The cell cycle analysis protocol was performed on compound 4 on HCT-116 cells. This test is based on the content of DNA measured by staining using propidium iodide. Initially, the cells were washed in PBS before being kept at 4 °C for 3 min dropwise using the vortex addition of cold 70% ethanol to avoid cell clumping and to ensure fixation as well. Then, […] of a stock of […] ribonuclease was added to selectively stain only DNA. Finally, […] of a stock solution of […] of propidium iodide was added.[35]

[2] = test system: ACHN; experiment: NCI 60 five dose assay, Renal cancer; type: cell-based, human
[3] = test system: SK-OV-3; experiment: NCI 60 five dose assay, Ovarian cancer; type: cell-based, human
[4] = test system: LOX IMVI; experiment: NCI 60 five dose assay, Melanoma; type: cell-based, human
[5] = test system: NCI-H23; experiment: NCI 60 single dose screen, Non-small cell lung cancer; type: cell-based, human; details: single dose 10 μM
Description: (§1) The newly synthesized pyrazoles 2a–g, 7a–d, 8a and b, 9, and 10 were submitted to the National Cancer Institute (NCI) Developmental Therapeutics Program (http://www.dtp.nci.nih.gov) for assessment of their potential antiproliferative activity against a panel of NCI 60 cancer cell lines. All compounds were approved for screening against the approved 60 cancer cell lines at a single dose of 10 μM. The human cancer cell lines were derived from 9 variant cancer types including leukemia, melanoma, lung, colon, CNS, ovarian, renal, prostate and breast cancers. The results are presented as percentage of growth inhibition (GI%) of the screened compounds against the full panel of cell lines.
(§2) Under sterile conditions, the cell lines were grown in RPMI 1640 media (Gibco, NY, USA) supplemented with 10% fetal bovine serum (Biocell, CA, USA), and […] cell/mL was used to test the growth inhibition activity of the synthesized compounds. The compounds with concentrations ranging from 0.01 to 100 μM were prepared in phosphate buffer saline. Each compound was initially solubilized in dimethyl sulfoxide (DMSO); however, each final dilution contained less than 1% DMSO. Solutions of different concentrations (0.2 mL) were pipetted into the separate well of a microtiter tray in duplicate. Cell culture (1.8 mL) containing a cell population of […] cells per mL was pipetted into each well. Controls, containing only phosphate buffer saline and DMSO at identical dilutions, were also prepared in the same manner. These cultures were incubated in a humidified incubator at 37 °C. The incubator was supplied with 5% CO2 atmosphere. After 48 h, the cells in each well were diluted 10 times with saline and counted using a Coulter counter. The counts were corrected for the dilution.[34]

[6] = test system: NCI-H322M; experiment: as above; type: cell-based, human; details: single dose 10 μM
Description: as §1, §2

[7] = test system: NCI-H460; experiment: as above; type: cell-based, human; details: single dose 10 μM
Description: as §1, §2

[8] = test system: 786-0; experiment: NCI 60 five dose assay, Renal cancer; type: cell-based, human
[9] = test system: RPMI-8226; experiment: NCI 60 five dose assay, Leukemia; type: cell-based, human
[10] = test system: IGROV1; experiment: NCI 60 five dose assay, Ovarian cancer; type: cell-based, human
[11] = test system: HT29; experiment: NCI 60 five dose assay, Colon cancer; type: cell-based, human
[12] = test system: MDA-MB-435; experiment: NCI 60 five dose assay, Melanoma; type: cell-based, human
[13] = test system: NCI 60 cancer cell lines; experiment: NCI 60 single dose screen, mean over full panel; type: cell-based, human; details: mean over NCI 60 cell lines; single dose 10 μM
Description: as §1, §2

[14] = test system: MDA-MB-468; experiment: NCI 60 five dose assay, Breast cancer
[15] = Homo sapiens, read-out: LC50 (the source's name)

## CC(=NNc1ccc(S(N)(=O)=O)cc1)c1ccc(NN=C2C(=O)NN=C2Nc2ccccc2)cc1 [Compound 4, 4-(2-(1-(4-(2-(5-oxo-3-(phenylamino)-1,5-dihydro-4H-pyrazol-4-ylidene)hydrazinyl)phenyl)ethylidene)hydrazinyl)benzene sulfonamide]
[1]
  cell cycle result: apoptotic cell growth arrest occurring at the G1 phase
[1]; control 6.82
  %G2/M: 3.79%
[1]; control 33.81
  %S: 23.05%
[1]; control 59.37
  %G0/G1: 73.16%
[1]; listed as cpd4
  cell cycle result: cell growth arrest@ G1
[2]; Homo sapiens
  GI50: 5.9 µM
[2]; [15]
  CC50: 43 µM
[2]; Log10 Concentration -4.0 Molar
  Percent Growth: -100%
[2]; Log10 Concentration -5.0 Molar
  Percent Growth: 36%
[2]; Log10 Concentration -6.0 Molar
  Percent Growth: 96%
[2]; Log10 Concentration -7.0 Molar
  Percent Growth: 104%
[2]; Log10 Concentration -8.0 Molar
  Percent Growth: 94%
[3]; Homo sapiens
  GI50: 2.34 µM
[3]; [15]
  CC50: 23.7 µM
[3]; Log10 Concentration -4.0 Molar
  Percent Growth: -98%
[3]; Log10 Concentration -5.0 Molar
  Percent Growth: -21%
[3]; Log10 Concentration -6.0 Molar
  Percent Growth: 92%
[3]; Log10 Concentration -7.0 Molar
  Percent Growth: 102%
[3]; Log10 Concentration -8.0 Molar
  Percent Growth: 89%
[4]; Homo sapiens
  GI50: 2.13 µM
[4]; [15]
  CC50: 8.81 µM
[4]; Log10 Concentration -4.0 Molar
  Percent Growth: -100%
[4]; Log10 Concentration -5.0 Molar
  Percent Growth: -59%
[4]; Log10 Concentration -6.0 Molar
  Percent Growth: 103%
[4]; Log10 Concentration -7.0 Molar
  Percent Growth: 102%
[4]; Log10 Concentration -8.0 Molar
  Percent Growth: 98%
[5]
  GI%: 99.80%
[6]
  GI%: 90.78%
[7]
  GI%: 91.13%
[8]; Homo sapiens
  GI50: 2.14 µM
[8]; [15]
  CC50: 24.7 µM
[8]; Log10 Concentration -4.0 Molar
  Percent Growth: -94%
[8]; Log10 Concentration -5.0 Molar
  Percent Growth: -22%
[8]; Log10 Concentration -6.0 Molar
  Percent Growth: 85%
[8]; Log10 Concentration -7.0 Molar
  Percent Growth: 96%
[8]; Log10 Concentration -8.0 Molar
  Percent Growth: 92%
[9]; Homo sapiens
  GI50: 3.36 µM
[9]; [15]
  CC50: > 100 µM
[9]; Log10 Concentration -4.0 Molar
  Percent Growth: -15%
[9]; Log10 Concentration -5.0 Molar
  Percent Growth: 12%
[9]; Log10 Concentration -6.0 Molar
  Percent Growth: 92%
[9]; Log10 Concentration -7.0 Molar
  Percent Growth: 101%
[9]; Log10 Concentration -8.0 Molar
  Percent Growth: 101%
[10]; Homo sapiens, IGROV-1
  GI50: 4.5 µM
[10]; Homo sapiens, IGROV-1, read-out: LC50 (the source's name)
  CC50: 43.2 µM
[10]; Log10 Concentration -4.0 Molar
  Percent Growth: -97%
[10]; Log10 Concentration -5.0 Molar
  Percent Growth: 32%
[10]; Log10 Concentration -6.0 Molar
  Percent Growth: 85%
[10]; Log10 Concentration -7.0 Molar
  Percent Growth: 94%
[10]; Log10 Concentration -8.0 Molar
  Percent Growth: 90%
[11]; Homo sapiens, HT-29
  GI50: 3.58 µM
[11]; Homo sapiens, HT-29, read-out: LC50 (the source's name)
  CC50: 34 µM
[11]; Log10 Concentration -4.0 Molar
  Percent Growth: -100%
[11]; Log10 Concentration -5.0 Molar
  Percent Growth: 7%
[11]; Log10 Concentration -6.0 Molar
  Percent Growth: 104%
[11]; Log10 Concentration -7.0 Molar
  Percent Growth: 117%
[11]; Log10 Concentration -8.0 Molar
  Percent Growth: 100%
[12]; Homo sapiens
  GI50: 2.07 µM
[12]; [15]
  CC50: 17.8 µM
[12]; Log10 Concentration -4.0 Molar
  Percent Growth: -83%
[12]; Log10 Concentration -5.0 Molar
  Percent Growth: -39%
[12]; Log10 Concentration -6.0 Molar
  Percent Growth: 91%
[12]; Log10 Concentration -7.0 Molar
  Percent Growth: 98%
[12]; Log10 Concentration -8.0 Molar
  Percent Growth: 90%
[13]
  mean GI%: 96.47%
[14]; Homo sapiens, MDA-MB-468
  GI50: 1.4 µM
[14]; Homo sapiens, MDA-MB-468, read-out: LC50
  CC50: 6.41 µM
[14]; MDA-MB-468
  TGI: 3 µM
